Marks after values point to notes of the source that are not given here.
Assays:
Assay type in all cases: cell-based
[1] = tested on: human articular chondrocytes treated with interleukin-1 (IL-1); experiment: Aggrecans associated with IL-1-treated chondrocytes, measured by immunocytochemistry / flux cytometry; conditions: for Mean fluorescence intensity in the chondrocytes after labelling of aggrecan, M ± SD: one week of culture
Procedure: The human articular chondrocytes were isolated and cultured following the previously described methods.
The accumulation of aggrecans associated with the chondrocytes was measured, after a week of culture, by means of the immunocytochemistry technique described by L. Wang et al. (Osteoarthritis Cart., 9, 248-260 (2001)). The chondrocytes were treated with interleukin-1 (IL-1) in order to simulate a situation of inflammation and catabolism. The inulin polysulphate in Chemical Example 1 was added jointly with IL-1.
Once the incubation period ended, the chondrocytes were released from the agarose gel following the described method. The chondrocytes and the associated aggrecans were studied by means of flux cytometry using monoclonal antibodies specifically directed against the aggrecans' proteic part.

[2] = tested on: rat chondrosarcoma cell line called LTC; experiment: Inhibition of aggrecan degradation induced by IL-1α (Western Blot, anti-aggrecan antibody G1 / NITGE); conditions: 100 μg/mL, in the presence or not of IL-1α (10 ng/mL), 4 days, FIG. 1
Procedure: The assays were performed on chondrocyte cultures from a rat chondrosarcoma cell line called LTC.
The LTC cells were kept in a monolayer culture in a Gibco DMEM medium (Dulbecco's Modification of Eagle's Medium) (containing 4.5 g/L of glucose) supplemented with sodium bicarbonate (3.7 g/L), glutamine (2 mM), ascorbic acid (50 mg/L), gentamicin (50 mg/L), and bovine fetal serum Hyalone (10%), at pH 7.4.
The confluent LTC cell cultures were trypsinised and 40,000 cells per 0.5 mL of culture were seeded in 48-well plates. They were maintained for 5 days, during which time they deposited 15-30 μg of glycosaminoglycans (GAG) in each well.
The medium was separated, the cell membranes were washed by adding 5×1 mL of a catabolic medium {DMEM+4.5 g/L glucose supplemented with sodium bicarbonate (3.7 g/L), glutamine (2 mM), and 10 ng/mL of IL-1α (interleukin-1α) at pH 7.4). […]
For the Western Blot, 20 μL of 50 mM tris-acetate at pH 7.3 were added to each well. […] 25 μL-fractions of the supernatant were separated by electrophoresis (gel gradient 8-12% SDS PAGE) and analysed by means of a Western Blot using anti-aggrecan antibody G1. […] The antiserum was used at a 1:5,000 dilution and the peroxidase-conjugated goat anti-(rabbit IgG) was detected by means of the Amersham ECL Kit.

[3] = tested on: Human articular chondrocytes; experiment: Synthesis of extracellular aggrecans determined by incorporation of 35S in primary culture of human chondrocytes in agarose gel; conditions: for 35S incorporated into the aggrecans associated with the cells / 35S incorporated into the inter-territorial matrix's aggrecans / 35S incorporated into the re-synthesised aggrecans (total): 48 h
Procedure: Human articular chondrocytes were isolated following the methods described by W. T. Green Jr. (Clin. Orthop., 75, 248-260 (1971)) and K. E. Kuettner et al. (J. Cell. Biol., 93, 743-750 (1982)).
These chondrocytes were cultured in an agarose gel following the method described by P. D. Benya et al. (Cell, 30, 215-224, (1982)), and modified by G. Verbruggen et al. (Clin. Exp. Rheumatol., 8, 371-378 (1990)) and by M. Cornelissen et al. (J. Tiss. Cult. Meth., 15, 139-146 (1993)).
The synthesis of aggrecans was determined by the incorporation of ^35S, using labelled sodium sulphate Na2^35SO4 as radioactive precursor. After two weeks of culture, 10 μCi/mL of radio-labelled precursor were introduced in the culture medium for 48 h, as was the compound to be assayed (inulin polysulphate in Chemical Example 1) at different concentrations (0.0, 0.1, 0.5, 1.0, 5.0 μg/mL).
The synthesised ^35S aggrecans once again partially accumulated in the intercellular agarose matrix or else were released in the incubation medium.
Once the incubation period ended, the agarose gel was mechanically broken down and subsequently digested by means of 3 mL of a 50 U/mL […] solution in a 0.067 M phosphate buffer, at pH 6.0, in the presence of proteinase inhibitors.
The suspension thus produced was centrifuged; the supernatant containing the inter-territorial matrix's ^35S aggrecans and the incubation medium containing the ^35S aggrecan metabolites released in the extracellular matrix were subsequently united by means of chromatography.
The residue, which contained the chondrocytes and the associated ^35S aggrecans, was treated for 48 hours with 1 mL of a 4.0 M guanidium chloride solution in a 0.05M acetate buffer at pH 5.8 containing the proteinase inhibitors.
The purpose of this operation is to extract the ^35S aggrecans associated with the cells. The solution produced was centrifuged in order to separate the cells from the supernatant, which was subsequently separated by means of chromatography. The chromatography operations for the different fractions produced were performed on Sephadex G25 gel in a phosphate buffer pH 6.8 containing 0.01 M of Na2SO4, in order to separate the ^35S aggrecans from the free Na2^35SO4.
The radioactivity of each of the macromolecular eluants produced was measured and related to the number of chondrocytes contained in the initial culture, expressed in pg of ^35SO4 incorporated into the aggrecans, per million chondrocytes per hour.

[4] = Donor F45, IL-1 + IPS 0.5 μg/mL
[5] = Donor F45, IL-1 + IPS 1.0 μg/mL
[6] = Donor F45, IL-1 + IPS 2.5 μg/mL
[7] = Donor M32, IL-1 + IPS 1.0 μg/mL
[8] = Donor M32, IL-1 + IPS 2.5 μg/mL
[9] = Donor M32, IL-1 + IPS 5.0 μg/mL

Substance: Inulin Polysulphate Sodium Salt [IPS]
- % Change with respect to the group treated with IL-1 (IL-1 = 100.0) [1, 4]: 112.7* %
- Mean fluorescence intensity in the chondrocytes after labelling of aggrecan, M ± SD [1, 4]: 20.4 ± 0.2
- % Change with respect to the group treated with IL-1 (IL-1 = 100.0) [1, 5]: 147.0* %
- Mean fluorescence intensity in the chondrocytes after labelling of aggrecan, M ± SD [1, 5]: 26.6 ± 0.1
- % Change with respect to the group treated with IL-1 (IL-1 = 100.0) [1, 6]: 215.5* %
- Mean fluorescence intensity in the chondrocytes after labelling of aggrecan, M ± SD [1, 6]: 39.0 ± 0.2
- % Change with respect to the group treated with IL-1 (IL-1 = 100.0) [1, 7]: 116.2* %
- Mean fluorescence intensity in the chondrocytes after labelling of aggrecan, M ± SD [1, 7]: 20.8 ± 1.2
- % Change with respect to the group treated with IL-1 (IL-1 = 100.0) [1, 8]: 120.7* %
- Mean fluorescence intensity in the chondrocytes after labelling of aggrecan, M ± SD [1, 8]: 21.6 ± 1.1
- % Change with respect to the group treated with IL-1 (IL-1 = 100.0) [1, 9]: 139.7* %
- Mean fluorescence intensity in the chondrocytes after labelling of aggrecan, M ± SD [1, 9]: 25.0 ± 1.4
- Effect on aggrecan degradation (band of aggrecan fragments labelled with antibody NITGE G1) [2]: aggrecan degradation is inhibited
- Concentration of optimum activity on aggrecan synthesis ([3]; 35S incorporation, concentrations 0.1-5.0 μg/mL tested): about 0.5 μg/mL
- % Total: aggrecans associated with the cells with respect to the total quantity of aggrecans ([3]; IPS 0.1 μg/mL): 23.5%
- % Total: inter-territorial matrix's aggrecans with respect to the total quantity of aggrecans ([3]; IPS 0.1 μg/mL): 66.2%
- % Total: re-synthesised aggrecans with respect to the total quantity of aggrecans ([3]; IPS 0.1 μg/mL): 100%
- % change with respect to the non-treated control, aggrecans associated with the cells ([3]; IPS 0.1 μg/mL): 15.1%
- % change with respect to the non-treated control, re-synthesised aggrecans (total) ([3]; IPS 0.1 μg/mL): 2.9%
- % change with respect to the untreated control, inter-territorial matrix's aggrecans ([3]; IPS 0.1 μg/mL): 1.4%
- 35S incorporated into the aggrecans associated with the cells ([3]; IPS 0.1 μg/mL): 2,737 pg ^35S/10^6 cells/h
- 35S incorporated into the inter-territorial matrix's aggrecans ([3]; IPS 0.1 μg/mL): 7,818 pg ^35S/10^6 cells/h
- 35S incorporated into the re-synthesised aggrecans (total) ([3]; IPS 0.1 μg/mL): 11,756 pg ^35S/10^6 cells/h
- % Total: aggrecans associated with the cells with respect to the total quantity of aggrecans ([3]; IPS 0.5 μg/mL): 18.4%
- % Total: inter-territorial matrix's aggrecans with respect to the total quantity of aggrecans ([3]; IPS 0.5 μg/mL): 70.7%
- % Total: re-synthesised aggrecans with respect to the total quantity of aggrecans ([3]; IPS 0.5 μg/mL): 100%
- % change with respect to the non-treated control, aggrecans associated with the cells ([3]; IPS 0.5 μg/mL): 28.8* %
- % change with respect to the non-treated control, re-synthesised aggrecans (total) ([3]; IPS 0.5 μg/mL): 51.5* %
- % change with respect to the untreated control, inter-territorial matrix's aggrecans ([3]; IPS 0.5 μg/mL): 60.6%
- 35S incorporated into the aggrecans associated with the cells ([3]; IPS 0.5 μg/mL): 3,064* pg ^35S/10^6 cells/h
- 35S incorporated into the inter-territorial matrix's aggrecans ([3]; IPS 0.5 μg/mL): 12,383 pg ^35S/10^6 cells/h
- 35S incorporated into the re-synthesised aggrecans (total) ([3]; IPS 0.5 μg/mL): 17,312* pg ^35S/10^6 cells/h
- % Total: aggrecans associated with the cells with respect to the total quantity of aggrecans ([3]; IPS 1.0 μg/mL): 17.9%
- % Total: inter-territorial matrix's aggrecans with respect to the total quantity of aggrecans ([3]; IPS 1.0 μg/mL): 70.7%
- % Total: re-synthesised aggrecans with respect to the total quantity of aggrecans ([3]; IPS 1.0 μg/mL): 100%
- % change with respect to the non-treated control, aggrecans associated with the cells ([3]; IPS 1.0 μg/mL): 11.9%
- % change with respect to the non-treated control, re-synthesised aggrecans (total) ([3]; IPS 1.0 μg/mL): 33.7* %
- % change with respect to the untreated control, inter-territorial matrix's aggrecans ([3]; IPS 1.0 μg/mL): 41.2* %
- 35S incorporated into the aggrecans associated with the cells ([3]; IPS 1.0 μg/mL): 2,662 pg ^35S/10^6 cells/h
- 35S incorporated into the inter-territorial matrix's aggrecans ([3]; IPS 1.0 μg/mL): 10,887* pg ^35S/10^6 cells/h
- 35S incorporated into the re-synthesised aggrecans (total) ([3]; IPS 1.0 μg/mL): 15,281* pg ^35S/10^6 cells/h
- % Total: aggrecans associated with the cells with respect to the total quantity of aggrecans ([3]; IPS 5.0 μg/mL): 17.4%
- % Total: inter-territorial matrix's aggrecans with respect to the total quantity of aggrecans ([3]; IPS 5.0 μg/mL): 67.9%
- % Total: re-synthesised aggrecans with respect to the total quantity of aggrecans ([3]; IPS 5.0 μg/mL): 100%
- % change with respect to the non-treated control, aggrecans associated with the cells ([3]; IPS 5.0 μg/mL): 14.2%
- % change with respect to the non-treated control, re-synthesised aggrecans (total) ([3]; IPS 5.0 μg/mL): 3.0%
- % change with respect to the untreated control, inter-territorial matrix's aggrecans ([3]; IPS 5.0 μg/mL): 8.2%
- 35S incorporated into the aggrecans associated with the cells ([3]; IPS 5.0 μg/mL): 2,041 pg ^35S/10^6 cells/h
- 35S incorporated into the inter-territorial matrix's aggrecans ([3]; IPS 5.0 μg/mL): 8,340 pg ^35S/10^6 cells/h
- 35S incorporated into the re-synthesised aggrecans (total) ([3]; IPS 5.0 μg/mL): 12,106 pg ^35S/10^6 cells/h

— patent US20080051350A1, “Therapeutic Use for a Group of Sulphated Polysaccharides” (Bioiberica, S.A., priority 2004, published 2008)
